Tests used:
[1] = The drug is tested on Z-024 corresponding to pig gut metagenome with ENA study accession number: PRJEB37062 and ENA sample accession number: ERS12561823 for biotransformation under anaerobic condition. The drug concentrations were measured over 9 timepoints collected between 0 and 24 hours of incubation by liquid-chromatography-coupled mass spectrometry (LC–MS); details: 2 µM
[2] = The drug is tested on Z-021 corresponding to metagenome with ENA study accession number: PRJEB37062 and ENA sample accession number: ERS12561820 for biotransformation under anaerobic condition. The drug concentrations were measured over 9 timepoints collected between 0 and 24 hours of incubation by liquid-chromatography-coupled mass spectrometry (LC–MS); details: 2 µM
[3] = The drug is tested on Z-016 corresponding to mouse gut metagenome with ENA study accession number: PRJEB37062 and ENA sample accession number: ERS12561815 for biotransformation under anaerobic condition. The drug concentrations were measured over 9 timepoints collected between 0 and 24 hours of incubation by liquid-chromatography-coupled mass spectrometry (LC–MS); details: 2 µM
[4] = The drug is tested on Z-006 corresponding to mouse gut metagenome with ENA study accession number: PRJEB37062 and ENA sample accession number: ERS12561806 for biotransformation under anaerobic condition. The drug concentrations were measured over 9 timepoints collected between 0 and 24 hours of incubation by liquid-chromatography-coupled mass spectrometry (LC–MS); details: 2 µM
[5] = The drug is tested on WLS-350 corresponding to human gut metagenome with ENA study accession number: PRJEB37062 and ENA sample accession number: ERS12561789 for biotransformation under anaerobic condition. The drug concentrations were measured over 9 timepoints collected between 0 and 24 hours of incubation by liquid-chromatography-coupled mass spectrometry (LC–MS); details: 2 µM
[6] = The drug is tested on WLS-220 corresponding to human gut metagenome with ENA study accession number: PRJEB37062 and ENA sample accession number: ERS12561769 for biotransformation under anaerobic condition. The drug concentrations were measured over 9 timepoints collected between 0 and 24 hours of incubation by liquid-chromatography-coupled mass spectrometry (LC–MS); details: 2 µM
[7] = The drug is tested on WLS-170 corresponding to human gut metagenome with ENA study accession number: PRJEB37062 and ENA sample accession number: ERS12561762 for biotransformation under anaerobic condition. The drug concentrations were measured over 9 timepoints collected between 0 and 24 hours of incubation by liquid-chromatography-coupled mass spectrometry (LC–MS); details: 2 µM
[8] = The drug is tested on WLS-073 corresponding to human gut metagenome with ENA study accession number: PRJEB37062 and ENA sample accession number: ERS12561749 for biotransformation under anaerobic condition. The drug concentrations were measured over 9 timepoints collected between 0 and 24 hours of incubation by liquid-chromatography-coupled mass spectrometry (LC–MS); details: 2 µM
[9] = The drug is tested on WLS-038 corresponding to human gut metagenome with ENA study accession number: PRJEB37062 and ENA sample accession number: ERS12561745 for biotransformation under anaerobic condition. The drug concentrations were measured over 9 timepoints collected between 0 and 24 hours of incubation by liquid-chromatography-coupled mass spectrometry (LC–MS); details: 2 µM
[10] = The drug is tested on WLS-027 corresponding to human gut metagenome with ENA study accession number: PRJEB37062 and ENA sample accession number: ERS12561744 for biotransformation under anaerobic condition. The drug concentrations were measured over 9 timepoints collected between 0 and 24 hours of incubation by liquid-chromatography-coupled mass spectrometry (LC–MS); details: 2 µM
[11] = The drug is tested on WLS-010 corresponding to human gut metagenome with ENA study accession number: PRJEB37062 and ENA sample accession number: ERS12561743 for biotransformation under anaerobic condition. The drug concentrations were measured over 9 timepoints collected between 0 and 24 hours of incubation by liquid-chromatography-coupled mass spectrometry (LC–MS); details: 2 µM
[12] = human gut metagenome, 24 h, 2 µM
[13] = human gut metagenome, 24 h, 2 µM; remark: listed apart in the source
[14] = human gut metagenome, 24 h, 2 µM; remark: listed apart in the source
[15] = human gut metagenome, 24 h, 2 µM; remark: listed apart in the source
[16] = human gut metagenome, 24 h, 2 µM; remark: listed apart in the source
[17] = human gut metagenome, 24 h, 2 µM; remark: listed apart in the source
[18] = human gut metagenome, 24 h, 2 µM; remark: listed apart in the source
[19] = human gut metagenome, 24 h, 2 µM; remark: listed apart in the source
[20] = human gut metagenome, 24 h, 2 µM; remark: listed apart in the source
Further: call rule not given here.

Row | SMILES | Bacterial Biotransformation [1] | Bacterial Biotransformation [2] | Bacterial Biotransformation [3] | Bacterial Biotransformation [4] | Bacterial Biotransformation [5] | Bacterial Biotransformation [6] | Bacterial Biotransformation [7] | Bacterial Biotransformation [8] | Bacterial Biotransformation [9] | Bacterial Biotransformation [10] | Bacterial Biotransformation [11] | Bacterial Biotransformation [12] | Bacterial Biotransformation [13] | Bacterial Biotransformation [14] | Bacterial Biotransformation [15] | Bacterial Biotransformation [16] | Bacterial Biotransformation [17] | Bacterial Biotransformation [18] | Bacterial Biotransformation [19] | Bacterial Biotransformation [20]
1 | Cc1ccccc1C(OCCN(C)C)c1ccccc1.O=C(O)CC(O)(CC(=O)O)C(=O)O (stereo not given) [ORPHENADRINE CITRATE] | Compound metabolized | Compound metabolized | Compound metabolized | Compound NOT metabolized | Compound NOT metabolized | Compound NOT metabolized | Compound metabolized | Compound NOT metabolized | Compound NOT metabolized | Compound NOT metabolized | Compound metabolized | Compound NOT metabolized | Compound NOT metabolized | Compound NOT metabolized | Compound NOT metabolized | Compound NOT metabolized | Compound NOT metabolized | Compound NOT metabolized | Compound metabolized | Compound metabolized
2 | CC(C)(C)N.CCC[C@H](N[C@@H](C)C(=O)N1[C@H](C(=O)O)C[C@@H]2CCCC[C@@H]21)C(=O)OCC [PERINDOPRIL ERBUMINE] | Compound metabolized | Compound NOT metabolized | Compound NOT metabolized | Compound NOT metabolized | Compound metabolized | Compound metabolized | Compound metabolized | Compound NOT metabolized | Compound NOT metabolized | Compound metabolized | Compound metabolized | Compound metabolized | Compound NOT metabolized | Compound metabolized | Compound metabolized | Compound metabolized | Compound metabolized | Compound metabolized | Compound metabolized | Compound metabolized
3 | COC(=O)C(c1ccccc1)C1CCCCN1 (stereo not given) [METHYLPHENIDATE] | Compound metabolized | Compound metabolized | Compound NOT metabolized | Compound NOT metabolized | Compound NOT metabolized | Compound metabolized | Compound metabolized | Compound NOT metabolized | Compound NOT metabolized | Compound metabolized | Compound NOT metabolized | Compound NOT metabolized | Compound NOT metabolized | Compound NOT metabolized | Compound NOT metabolized | Compound NOT metabolized | Compound NOT metabolized | Compound metabolized | Compound metabolized | Compound NOT metabolized
4 | CCCN1C[C@H](CSC)C[C@@H]2c3cccc4[nH]cc(c34)C[C@H]21.CS(=O)(=O)O [PERGOLIDE MESYLATE] | Compound NOT metabolized | Compound metabolized | Compound NOT metabolized | Compound NOT metabolized | Compound NOT metabolized | Compound NOT metabolized | Compound NOT metabolized | Compound NOT metabolized | Compound NOT metabolized | Compound NOT metabolized | Compound NOT metabolized | Compound NOT metabolized | Compound NOT metabolized | Compound NOT metabolized | Compound NOT metabolized | Compound NOT metabolized | Compound NOT metabolized | Compound NOT metabolized | Compound NOT metabolized | Compound NOT metabolized
5 | CCCC(C)(COC(N)=O)COC(=O)NC(C)C (stereo not given) [CARISOPRODOL] | Compound metabolized | Compound NOT metabolized | Compound metabolized | Compound metabolized | Compound metabolized | Compound metabolized | Compound metabolized | Compound metabolized | Compound metabolized | Compound metabolized | Compound metabolized | Compound metabolized | Compound metabolized | Compound NOT metabolized | Compound NOT metabolized | Compound NOT metabolized | Compound metabolized | Compound metabolized | Compound metabolized | Compound metabolized
6 | CN(C)C(=O)Oc1cc(OC(=O)N(C)C)cc(C(O)CNC(C)(C)C)c1 (stereo not given) [BAMBUTEROL] | Compound NOT metabolized | Compound metabolized | Compound NOT metabolized | Compound NOT metabolized | Compound metabolized | Compound metabolized | Compound NOT metabolized | Compound NOT metabolized | Compound NOT metabolized | Compound NOT metabolized | Compound NOT metabolized | Compound NOT metabolized | Compound NOT metabolized | Compound metabolized | Compound metabolized | Compound metabolized | Compound NOT metabolized | Compound metabolized | Compound metabolized | Compound metabolized
